Reference: ChEMBL document CHEMBL1201862, “PubChem BioAssay data set” (2004)
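Dose response: 5 concentrations. Exposure: 48 h. Format: 96-well plates. Endpoint: linear interpolation; highest concentration if not reached. GI50: concentration for 50% inhibition of growth.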 Active and inactive are the calls of the source. No stated cut-off is given here; in the data, active = GI50 up to about 1.1 µM and inactive = higher.

How the values were obtained:
Experiment in all cases: DTP human tumour cell line panel, 48 h
OVCAR-8 = tested on: OVCAR-8
SNB-19 = tested on: SNB-19
SK-OV-3 = tested on: SK-OV-3
MDA-MB-231 = tested on: MDA-MB-231
MOLT-4 = tested on: MOLT-4
NCI-H460 = tested on: NCI-H460
RXF 393 = tested on: RXF 393
EKVX = tested on: EKVX
T47D = tested on: T47D
A549 = tested on: A549
SNB-75 = tested on: SNB-75
KM12 = tested on: KM12
HOP-92 = tested on: HOP-92
SK-MEL-2 = tested on: SK-MEL-2
PC-3 = tested on: PC-3
SK-MEL-5 = tested on: SK-MEL-5
MDA-MB-435 = tested on: MDA-MB-435
U-251 = tested on: U-251
CAKI-1 = tested on: CAKI-1
MCF7 = tested on: MCF7

| SMILES | GI50 (OVCAR-8) | GI50 (SNB-19) | GI50 (SK-OV-3) | GI50 (MDA-MB-231) | GI50 (MOLT-4) | GI50 (NCI-H460) | GI50 (RXF 393) | GI50 (EKVX) | GI50 (T47D) | GI50 (A549) | GI50 (SNB-75) | GI50 (KM12) | GI50 (HOP-92) | GI50 (SK-MEL-2) | GI50 (PC-3) | GI50 (SK-MEL-5) | GI50 (MDA-MB-435) | GI50 (U-251) | GI50 (CAKI-1) | GI50 (MCF7) |
| --- | --- | --- | --- | --- | --- | --- | --- | --- | --- | --- | --- | --- | --- | --- | --- | --- | --- | --- | --- | --- |
| CCN(CC)CC[S+]([O-])c1c2cc(OC)ccc2nc2ccc(OC)cc12 (stereo not given) | 3.83 µM (inactive) | 22.7 µM (inactive) | 21.6 µM (inactive) | 13.6 µM (inactive) | 2.31 µM (inactive) | 27.7 µM (inactive) | 7.33 µM (inactive) | 15 µM (inactive) | 1.95 µM (inactive) | 24.9 µM (inactive) | 19.6 µM (inactive) | 20.6 µM (inactive) | 3.28 µM (inactive) | 18.6 µM (inactive) | 12 µM (inactive) | 16.5 µM (inactive) | 9.46 µM (inactive) | 20 µM (inactive) | 9.75 µM (inactive) | 2.42 µM (inactive) |
| O=C1C(CN2CCOCC2)CCCC1CN1CCOCC1 (stereo not given) | 3.41 µM (inactive) | 30.8 µM (inactive) | 32.1 µM (inactive) | 5.97 µM (inactive) | 0.861 µM (active) | 24.6 µM (inactive) | 1.75 µM (inactive) | 4.23 µM (inactive) | 1.13 µM (inactive) | 24.1 µM (inactive) | 14 µM (inactive) | 5.98 µM (inactive) | 0.92 µM (active) | 8.36 µM (inactive) | 15.6 µM (inactive) | 11.1 µM (inactive) | 14.4 µM (inactive) | 30.1 µM (inactive) | 0.394 µM (active) | 0.303 µM (active) |
| O=C(N[C@@H](c1ccccc1)[C@@H](O)C(=O)OCc1ccc([N+](=O)[O-])cc1)c1ccccc1 | > 100 µM (inactive) | > 100 µM (inactive) | > 100 µM (inactive) | > 100 µM (inactive) | 25.8 µM (inactive) | > 100 µM (inactive) | > 100 µM (inactive) | > 100 µM (inactive) | > 100 µM (inactive) | > 100 µM (inactive) | 44.1 µM (inactive) | > 100 µM (inactive) | > 100 µM (inactive) | > 100 µM (inactive) | > 100 µM (inactive) | 75.9 µM (inactive) | > 100 µM (inactive) | > 100 µM (inactive) | > 100 µM (inactive) | 84.5 µM (inactive) |
| O=S(=O)(/C=C/C=C/[S+]([O-])c1ccccc1)c1ccccc1 (stereo not given) | 1.7 µM (inactive) | > 10 µM (inactive) | > 10 µM (inactive) | 2.81 µM (inactive) | 1.42 µM (inactive) | > 10 µM (inactive) | 1.58 µM (inactive) | > 10 µM (inactive) | 2.02 µM (inactive) | > 10 µM (inactive) | 4.66 µM (inactive) | > 2.63 µM (inactive) | 1.96 µM (inactive) | 2.01 µM (inactive) | > 6.92 µM (inactive) | 1.03 µM (active) | 2.07 µM (inactive) | > 10 µM (inactive) | 1.84 µM (inactive) | 0.887 µM (active) |
| COc1cc(OC)c(/C=N\Nc2nc3ccccc3c(=O)n2-c2ccccc2)c(OC)c1 | 28.7 µM (inactive) | 24 µM (inactive) | 24.9 µM (inactive) | 23.8 µM (inactive) | 22.9 µM (inactive) | 21.7 µM (inactive) | 23.7 µM (inactive) | 26.9 µM (inactive) | 24.6 µM (inactive) | 31.4 µM (inactive) | 24.9 µM (inactive) | > 31.6 µM (inactive) | 24.8 µM (inactive) | 25.4 µM (inactive) | 26.3 µM (inactive) | 26.2 µM (inactive) | 24.5 µM (inactive) | 32.1 µM (inactive) | 16 µM (inactive) | > 47.1 µM (inactive) |
| COc1ccc(/C=C(/c2ccccc2)c2c(C)cc(C)c(/C(=C\c3ccc(OC)cc3)c3ccccc3)c2/N=N/c2cc(C)cc(C)c2)cc1 | 17.9 µM (inactive) | 15.5 µM (inactive) | 41 µM (inactive) | 6.76 µM (inactive) | 15.7 µM (inactive) | 15.5 µM (inactive) | 32.3 µM (inactive) | 30 µM (inactive) | 4.9 µM (inactive) | 14.6 µM (inactive) | 6.92 µM (inactive) | 9.64 µM (inactive) | 33.6 µM (inactive) | 7.74 µM (inactive) | 9.89 µM (inactive) | 17.6 µM (inactive) | 14.6 µM (inactive) | 7.33 µM (inactive) | > 88.1 µM (inactive) | 9.91 µM (inactive) |
| COc1ccc(/C=C2\CCC(CNc3cc(C)on3)C2=O)cc1 (stereo not given) | > 100 µM (inactive) | 64.4 µM (inactive) | > 92.5 µM (inactive) | > 82 µM (inactive) | > 100 µM (inactive) | > 78.5 µM (inactive) | > 21.5 µM (inactive) | > 100 µM (inactive) | 33 µM (inactive) | > 88.7 µM (inactive) | 29.4 µM (inactive) | > 100 µM (inactive) | > 100 µM (inactive) | > 79.3 µM (inactive) | > 100 µM (inactive) | > 100 µM (inactive) | > 100 µM (inactive) | > 60.1 µM (inactive) | > 100 µM (inactive) | > 100 µM (inactive) |
